From patent US20040038855A1 (priority 1999, published 2004) come the findings set out here.

Counter-ions that a name gives are not always drawn. Like-named read-outs stand apart in the source and are kept apart here.

In general, Ki refers to a dissociation constant, usually derived from enzyme kinetics or from competition with a known ligand.

Experiment [1] relates to micturition reflex, conscious male Sprague Dawley rats. Put plainly: Continuous Slow Transvesicular Infusion (CSTI) rat model. It is filed as in vivo. On the set-up: key to Effect of MCH1 antagonist in the CSTI model: B = Produced an increase in bladder capacity in rats relative to baseline capacity. The note with it: bladder capacity, intragastric. The procedure: The effects of compounds on the micturition reflex were assessed in the “distension-induced rhythmic contraction” (DIRC), as described in previous publications (e.g. Maggi et al, 1987; Morikawa et al, 1992), and Continuous Slow Transvesicular Infusion (CSTI) models in rats. Male Sprague Dawley rats weighing approximately 300 g were used for the study. Rats were anaesthetized with pentobarbitone sodium (50 mg/kg, i.p). Through a median abdominal incision, bladder was exposed and a polyethylene cannula (PE 50) was introduced into the bladder through a small cut on the dome of the bladder and the cannula was secured with a purse string suture. The other end of the cannula was exteriorized subcutaneously at the dorsal neck area. Similarly, another cannula (PE 50) was introduced into the stomach through a paramedian abdominal incision with the free end exteriorized subcutaneously to the neck region. The surgical wounds were closed with silk 4-0 suture and the animal was allowed to recover with appropriate post surgical care. On the following day, the animal was placed in a rat restrainer. The open end of the bladder cannula was connected to a pressure transducer as well as infusion pump through a three-way stopcock. The bladder voiding cycles were initiated by continuous infusion of normal saline at the rate of 100 ul/min. The repetitive voiding contractions were recorded on a Power Lab on-line data acquisition software. After recording the basal voiding pattern for an hour, the test drug or vehicle was administered directly into stomach through the intragastric catheter and the voiding cycles were monitored for 5 hours. Micturition pressure and frequency were calculated before and after the treatment (at every 30 min interval) for each animal. Bladder capacity was calculated from the micturition frequency, based on the constant infusion of 100 ul/min. The effect of the test drug was expressed as a percentage of basal, pre-drug bladder capacity. WAY 100635 was used as positive control for comparison.

The target of experiment [2] is T1, human MCH1 receptor (Homo sapiens, UniProt Q99705). It is filed as cell-based. The following applies: agonist challenge. Details: expressed in transfected cells; host or cells: COS-7. How it is done: Guidelines for cell preparation and assay of the second messenger inositol phosphate (IP) are described below for a typical protocol involving transiently transfected Cos-7 cells; For a 96 well microplate format assay, cells are plated at 70,000 cells per well and allowed to incubate for 24 hours after the transfection procedure. The cells are then labeled with 0.5 μCi [^3H]myo-inositol per micro-well over night at 37° C., 5% CO2. Immediately before the assay, the medium is removed and replaced with 90 μl PBS containing 10 mM LiCl. The plates are then incubated for 15 minutes at 37° C., […]. Following the incubation, the transfectants are challenged with agonist (10 μl/well; 10× concentration) for 30 minutes at 37° C., 5% CO2. The challenge is terminated and the cells lysed by the addition of 100 μl cold 5% v/v trichloroacetic acid (TCA), followed by an incubation at 4° C. for greater than 30 minutes. Total IPs are isolated from the lysate by ion exchange chromatography. Briefly, the lysed contents of the wells are transferred to a Multiscreen HV filter plate (Millipore) containing 100 μl Dowex AG1-X8 suspension (50% v/v, water:resin) (200-400 mesh, formate form). The filter plates are placed on a vacuum manifold to wash and elute the resin bed. Each well is first washed 2 times with 200 μl 5 mM myoinositol. Total [^3H]IPs are eluted with 75 μl of 1.2 M ammonium formate/0.1 M formic acid into Wallac 96-well plates. 200 μl of SuperMix scintillation cocktail is added to each well, mixed well, allowed to equilibrate and counted on a Micro Beta Trilux scintillation counter. (Note: The assay may be scaled to a 24 well format by simple adjustment of reagent volumes and employing individual chromatographic columns.)
The expression vector (pEXJ) containing the MCH1 cDNA was transfected by electroporation into Cos-7 cells in combination with an expression vector (pEXJ) containing the Gα16 subunit.

Experiment [3] concerns the target T2, human Dopamine D2 receptor (Homo sapiens, UniProt P14416).
T2 construct: purchased BioSignal, Inc. (Montreal, Canada)
Put plainly: Binding affinity at the human dopamine D2 receptor. The note with it: Table 3c; read-out: hD2 Ki. In a few lines: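 D1/D2: membranes from cells expressing human receptor, binding format. α2A, D5: receptor binding assays, conditions not detailed.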

The target of experiment [4] is T3, human Alpha-1a Adrenergic receptor (Homo sapiens, UniProt P35348).
T3 construct: expressed in transfected cells
T3 sequence (P35348 1-466): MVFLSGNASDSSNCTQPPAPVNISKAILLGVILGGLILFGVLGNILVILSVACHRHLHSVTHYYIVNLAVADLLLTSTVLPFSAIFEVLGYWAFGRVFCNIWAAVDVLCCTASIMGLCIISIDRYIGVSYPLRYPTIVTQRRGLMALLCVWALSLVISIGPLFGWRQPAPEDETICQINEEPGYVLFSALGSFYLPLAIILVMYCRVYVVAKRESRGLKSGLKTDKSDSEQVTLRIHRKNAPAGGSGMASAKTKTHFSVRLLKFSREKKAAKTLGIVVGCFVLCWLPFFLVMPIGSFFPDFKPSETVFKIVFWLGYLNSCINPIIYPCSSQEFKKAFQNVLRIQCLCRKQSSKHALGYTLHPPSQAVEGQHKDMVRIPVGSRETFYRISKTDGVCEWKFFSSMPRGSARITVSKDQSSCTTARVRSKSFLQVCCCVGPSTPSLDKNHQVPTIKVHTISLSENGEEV
Put plainly: Binding affinity at the human alpha-1A adrenergic receptor. The following applies: Table 3c; read-out: hAlpha-1a Ki. In a few lines:
(§1)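 Receptor binding read-out throughout; membranes expressing human D1 or D2 receptor were used for those two targets.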

Experiment [5] deals with T4, human Histamine H1 receptor (Homo sapiens, UniProt P35367).
T4 construct: expressed in transfected cells
Nature of the experiment: Binding affinity at the human histamine H1 receptor. The note with it: Table 3c; read-out: hH1 Ki. In a few lines: as §1

For the next experiment, the target named is T5, rat MCH1 receptor (Rattus norvegicus, UniProt P97639).
T5 construct: expressed in transfected cells
Put plainly: Binding affinity (Ki) at the rat MCH1 receptor.

The target of experiment [6] is T1, human MCH1 receptor. Nature of the experiment: Saturation and competition binding of [3H]Compound 10, membranes of Cos-7 cells transfected with MCH1. Details: expressed in transfected cells; host or cells: COS-7. The note with it: room temperature, 90 min; read-out: Kd (Scatchard analysis of saturation binding). The procedure:
Saturation equilibrium binding of [3H]Compound 10 to the human MCH1 receptor. Membrane preparations from Cos-7 cells transfected with MCH1 were incubated with varying concentrations of [3H]Compound 10 (SA: 56 Ci/mmol) at room temperature for 90 min, in a volume of 0.250 ml. The reaction was terminated by filtration in GF/C filters, and the radioactivity determined by scintillation counting. Non-specific binding was defined as the amount of radioactivity retained in the filter after incubating the reaction mixture in the presence of unlabeled Compound 10 ([…]).
Competition binding of [3H]Compound 10 to the human MCH1 receptor. […] The reaction was terminated by filtration in GF/C filters and the radioactivity bound to the membrane was determined by scintillation counting.
[3H]Compound 10 was tested for its ability to bind to membrane preparations of cells expressing the human MCH1 receptor.

Setting [7] is: Examples 38-141, read-out: Ki (nM) rMCH1.
The mark [8] stands for this setting: Examples 142-153, read-out: Ki (nM) rMCH1.

T5 sequence (P97639 whole entry): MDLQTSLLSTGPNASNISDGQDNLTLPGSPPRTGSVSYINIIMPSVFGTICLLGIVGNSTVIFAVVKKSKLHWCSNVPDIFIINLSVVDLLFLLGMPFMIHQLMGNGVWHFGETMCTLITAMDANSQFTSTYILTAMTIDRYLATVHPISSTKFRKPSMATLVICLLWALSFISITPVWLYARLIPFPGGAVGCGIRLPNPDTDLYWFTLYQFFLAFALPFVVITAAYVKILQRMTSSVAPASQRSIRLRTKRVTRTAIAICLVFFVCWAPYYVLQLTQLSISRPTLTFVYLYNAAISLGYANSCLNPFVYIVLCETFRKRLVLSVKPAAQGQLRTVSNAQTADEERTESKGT
T1 sequence (Q99705 whole entry): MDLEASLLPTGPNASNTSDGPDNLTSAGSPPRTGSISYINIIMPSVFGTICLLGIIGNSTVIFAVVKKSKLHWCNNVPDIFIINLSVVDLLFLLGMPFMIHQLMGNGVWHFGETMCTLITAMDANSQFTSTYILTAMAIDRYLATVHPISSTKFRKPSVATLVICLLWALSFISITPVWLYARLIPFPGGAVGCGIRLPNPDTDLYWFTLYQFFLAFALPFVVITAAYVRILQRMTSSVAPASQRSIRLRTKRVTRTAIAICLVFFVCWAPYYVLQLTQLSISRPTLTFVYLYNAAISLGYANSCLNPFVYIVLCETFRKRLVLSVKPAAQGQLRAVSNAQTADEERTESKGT
T4 sequence (P35367 whole entry): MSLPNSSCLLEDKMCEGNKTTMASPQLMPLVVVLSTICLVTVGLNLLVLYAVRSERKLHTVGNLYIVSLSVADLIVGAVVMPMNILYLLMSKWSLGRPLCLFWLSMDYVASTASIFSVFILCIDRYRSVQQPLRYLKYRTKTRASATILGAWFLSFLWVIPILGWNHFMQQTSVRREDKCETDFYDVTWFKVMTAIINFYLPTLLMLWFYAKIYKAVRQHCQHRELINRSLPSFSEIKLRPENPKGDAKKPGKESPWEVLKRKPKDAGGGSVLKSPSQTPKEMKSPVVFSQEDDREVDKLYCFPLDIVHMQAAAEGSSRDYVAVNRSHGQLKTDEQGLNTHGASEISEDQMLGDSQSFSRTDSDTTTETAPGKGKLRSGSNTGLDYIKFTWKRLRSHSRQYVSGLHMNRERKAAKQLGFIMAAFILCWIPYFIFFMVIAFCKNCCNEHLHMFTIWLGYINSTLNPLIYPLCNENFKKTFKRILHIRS
T2 sequence (P14416 whole entry): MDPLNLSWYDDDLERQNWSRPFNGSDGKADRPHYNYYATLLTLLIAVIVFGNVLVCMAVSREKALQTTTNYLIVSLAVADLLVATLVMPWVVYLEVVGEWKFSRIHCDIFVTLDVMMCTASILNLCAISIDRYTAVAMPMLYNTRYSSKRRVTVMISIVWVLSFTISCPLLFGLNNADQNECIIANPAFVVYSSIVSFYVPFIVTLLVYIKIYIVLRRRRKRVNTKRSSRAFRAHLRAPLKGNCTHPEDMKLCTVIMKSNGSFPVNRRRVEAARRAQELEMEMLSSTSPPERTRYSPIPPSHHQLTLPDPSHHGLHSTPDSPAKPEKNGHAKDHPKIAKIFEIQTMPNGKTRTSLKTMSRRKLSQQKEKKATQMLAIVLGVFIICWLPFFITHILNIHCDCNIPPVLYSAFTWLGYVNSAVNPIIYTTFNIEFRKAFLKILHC

Consider `CC(=O)C1=C(C)NC(=O)N(C(=O)NCCCN2CCC(c3cccc(NC(=O)C(C)C)c3)CC2)[C@H]1c1cc(F)c(F)c(F)c1` [Example 155, (+)-5-ACETYL-N-(3-{4-[3-(ISOBUTYRYLAMINO)PHENYL]-1-PIPERIDINYL}PROPYL)-4-METHYL-2-OXO-6-(3,4,5-TRIFLUOROPHENYL)-3,6-DIHYDRO-1(2H)-PYRIMIDINECARBOXAMIDE. HYDROCHLORIDE SALT], for which the “Effect of MCH1 antagonist in the CSTI model” value (from here on “Effect of MCH1 antagonist”) in experiment [1] was “B”.
Take `O=C(CCCN1CCC(O)(c2ccc(Cl)cc2)CC1)c1ccc(F)cc1` [haloperidol]: the “dose-responsiveness of inositol phosphate formation” value at human MCH1 receptor [2] is recorded as “No dose-responsiveness”.
For the compound `CC(C)C(=O)Nc1cccc(C2CCN(CCCC(=O)c3ccc(Cl)cc3)CC2)c1` [Example 66], the “Effect of MCH1 antagonist” value in experiment [1] is reported as “B”. Besides, the Ki in experiment [3] was found to be 862 nM; in experiment [4], 19.4 nM; in experiment [5] it was 461 nM; on rat MCH1 receptor (setting [7]) it was 2.8 nM; on rat MCH1 receptor (Table 3c, read-out: rMCH1 Ki) it was 2.8 nM.
For `COc1ccc2[nH]c(-c3ccccc3)c(CCCN3CCC(c4cccc(NC(=O)C(C)C)c4)CC3)c2c1` [Example 147], the “Effect of MCH1 antagonist” value in experiment [1] is recorded as “B”. For the same compound, at rat MCH1 receptor (setting [8]), the Ki is 2.3 nM.
As for `Cc1ccc(C(=O)CCCN2CCC(c3cccc(NC(=O)C(C)C)c3)CC2)cc1C` [Example 58], the “Effect of MCH1 antagonist” value in experiment [1] is “B”. In addition, the Ki in experiment [3] amounted to 2840 nM; in experiment [4], 32.1 nM; in experiment [5], 700 nM; at rat MCH1 receptor (setting [7]) it was 3.9 nM; at rat MCH1 receptor (Table 3c, read-out: rMCH1 Ki), 3.9 nM.
As for `COCC1=C(C(=O)OC)[C@H](c2ccc(F)c(F)c2)N(C(=O)NCCCN2CCC(c3cccc(NC(=O)C(C)C)c3)CC2)C(=O)N1` [Example 43, METHYL (4S)-4-(3,4-DIFLUOROPHENYL)-3-{[(3-{4-[3-(ISOBUTYRYLAMINO)PHENYL]-1-PIPERIDINYL}PROPYL)AMINO]CARBONYL}-6-(METHOXYMETHYL)-2-OXO-1,2,3,4-TETRAHYDRO-5-PYRIMIDINECARBOXYLATE], the “Effect of MCH1 antagonist” value in experiment [1] is “B”. The inhibition constant (Ki) turned out to be 3570 nM in experiment [3]; 21.9 nM in experiment [4]; 10800 nM in experiment [5]; 0.23 nM at rat MCH1 receptor (setting [7]); 0.23 nM at rat MCH1 receptor (Table 3c, read-out: rMCH1 Ki).
`CCn1c2ccccc2c2cc(CN3CCC(c4cccc(NC(=O)C(C)C)c4)CC3)ccc21` [Example 148]: the “Effect of MCH1 antagonist” value in experiment [1] is listed as “B”. Also, on rat MCH1 receptor (setting [8]), the Ki was determined as 1.7 nM.
`COCC1=C(C(=O)OC)[C@H](c2ccc(F)c(F)c2)N(C(=O)NCCCN2CCC(c3cccc(NC(C)=O)c3)CC2)C(=O)N1` [[3H]Compound 10, TRITIATED METHYL (4S)-3-{[(3-{4-[3-(ACETYLAMINO)PHENYL]-1-PIPERIDINYL}PROPYL)AMINO]CARBONYL}-4-(3,4-DIFLUOROPHENYL)-6-(METHOXYMETHYL)-2-OXO-1,2,3,4-TETRAHYDRO-5-PYRIMIDINECARBOXYLATE]: at human MCH1 receptor [6], the Kd was 0.18 nM.
Turning to “dynorphin A1-13: compound tested for its ability to activate MCH1 (YGGFLRRIRPKLK)”, in the experiment with human MCH1 receptor [2], the “dose-responsiveness of inositol phosphate formation” value is reported as “No dose-responsiveness”.
For `CC(C)C(=O)Nc1cccc(C2CCN(CCCNC(=O)C(c3ccccc3)c3ccccc3)CC2)c1` [Example 153], the “Effect of MCH1 antagonist” value in experiment [1] was “B”. Besides, on rat MCH1 receptor (setting [8]), the inhibition constant Ki was determined as 2.9 nM.
On to `Cc1ccc(NC(=O)C(C)C)cc1C1CCN(Cc2ccc(Oc3ccc(F)c(F)c3)cc2)CC1` [Example 152], for which, in experiment [1], the “Effect of MCH1 antagonist” value was “B”. Also, the inhibition constant (Ki) on rat MCH1 receptor (setting [8]) is 2.2 nM.
